Experimental data taken from ChEMBL document CHEMBL1201862, “PubChem BioAssay data set” (2004).
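Compound exposure: 48 hours, 5 concentrations, 96-well plates. GI50 marks 50% less growth.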 Calls of active or inactive are those of the source. Cut-off read from the data, not from the text of the source: active = GI50 up to about 1.1 µM and inactive = higher.

How the values were obtained:
Experiment in all cases: NCI anticancer screen, dose series, 48 h
CCRF-CEM = system: CCRF-CEM
OVCAR-3 = system: OVCAR-3
XF498 = system: XF498
K562 = system: K562
RXF 393 = system: RXF 393
SN12C = system: SN12C
OVCAR-8 = system: OVCAR-8
IGROV-1 = system: IGROV-1
NCI-H23 = system: NCI-H23
SF-539 = system: SF-539
RPMI-8226 = system: RPMI-8226
SNB-19 = system: SNB-19
A549 = system: A549
LXFL 529 = system: LXFL 529
KM12 = system: KM12
UACC-257 = system: UACC-257
HT-29 = system: HT-29
SK-MEL-28 = system: SK-MEL-28
UO-31 = system: UO-31
KM-20L2 = system: KM-20L2
COLO 205 = system: COLO 205
DMS-114 = system: DMS-114
SW-620 = system: SW-620
SK-MEL-5 = system: SK-MEL-5
NCI-H460 = system: NCI-H460
U-251 = system: U-251
MOLT-4 = system: MOLT-4
HCT-116 = system: HCT-116
SK-MEL-2 = system: SK-MEL-2
OVCAR-5 = system: OVCAR-5
OVCAR-4 = system: OVCAR-4
NCI-H522 = system: NCI-H522
SF-268 = system: SF-268
HL-60 = system: HL-60
UACC-62 = system: UACC-62
SF-295 = system: SF-295
HOP-92 = system: HOP-92
M19-MEL = system: M19-MEL
HOP-62 = system: HOP-62
SK-OV-3 = system: SK-OV-3
SR = system: SR
SNB-75 = system: SNB-75
TK-10 = system: TK-10
EKVX = system: EKVX
M14 = system: M14
Malme-3M = system: Malme-3M
A498 = system: A498
DMS-273 = system: DMS-273
HCC 2998 = system: HCC 2998
HCT-15 = system: HCT-15
CAKI-1 = system: CAKI-1
DLD-1 = system: DLD-1
ACHN = system: ACHN
786-0 = system: 786-0
HOP-18 = system: HOP-18
LOX IMVI = system: LOX IMVI
SNB-78 = system: SNB-78

O=C(NN1C(=O)C(Cl)C1c1ccc([N+](=O)[O-])cc1)c1ccccc1O (stereo not given)
GI50 (CCRF-CEM): > 100 µM (inactive)
GI50 (OVCAR-3): > 100 µM (inactive)
GI50 (XF498): 93.1 µM (inactive)
GI50 (K562): > 100 µM (inactive)
GI50 (RXF 393): > 100 µM (inactive)
GI50 (SN12C): > 100 µM (inactive)
GI50 (OVCAR-8): > 100 µM (inactive)
GI50 (IGROV-1): > 100 µM (inactive)
GI50 (NCI-H23): > 100 µM (inactive)
GI50 (SF-539): > 100 µM (inactive)
GI50 (RPMI-8226): > 100 µM (inactive)
GI50 (SNB-19): 68.1 µM (inactive)
GI50 (A549): > 100 µM (inactive)
GI50 (LXFL 529): > 100 µM (inactive)
GI50 (KM12): > 100 µM (inactive)
GI50 (UACC-257): > 100 µM (inactive)
GI50 (HT-29): > 100 µM (inactive)
GI50 (SK-MEL-28): > 100 µM (inactive)
GI50 (UO-31): > 100 µM (inactive)
GI50 (KM-20L2): > 100 µM (inactive)
GI50 (COLO 205): > 100 µM (inactive)
GI50 (DMS-114): > 100 µM (inactive)
GI50 (SW-620): > 100 µM (inactive)
GI50 (SK-MEL-5): > 100 µM (inactive)
GI50 (NCI-H460): > 100 µM (inactive)
GI50 (U-251): > 100 µM (inactive)
GI50 (MOLT-4): > 100 µM (inactive)
GI50 (HCT-116): > 100 µM (inactive)
GI50 (SK-MEL-2): > 100 µM (inactive)
GI50 (OVCAR-5): > 100 µM (inactive)
GI50 (OVCAR-4): > 100 µM (inactive)
GI50 (NCI-H522): > 100 µM (inactive)
GI50 (SF-268): > 100 µM (inactive)
GI50 (HL-60): > 100 µM (inactive)
GI50 (UACC-62): > 100 µM (inactive)
GI50 (SF-295): > 100 µM (inactive)
GI50 (HOP-92): > 100 µM (inactive)
GI50 (M19-MEL): > 100 µM (inactive)
GI50 (HOP-62): > 100 µM (inactive)
GI50 (SK-OV-3): > 100 µM (inactive)
GI50 (SR): > 100 µM (inactive)
GI50 (SNB-75): 51.8 µM (inactive)
GI50 (TK-10): > 100 µM (inactive)
GI50 (EKVX): > 100 µM (inactive)
GI50 (M14): > 100 µM (inactive)
GI50 (Malme-3M): 43 µM (inactive)

CN1OC(CO)CC12C1CC3CC(C1)CC2C3 (stereo not given)
GI50 (CCRF-CEM): > 100 µM (inactive)
GI50 (OVCAR-3): > 100 µM (inactive)
GI50 (A498): > 100 µM (inactive)
GI50 (K562): > 100 µM (inactive)
GI50 (RXF 393): > 100 µM (inactive)
GI50 (DMS-273): > 100 µM (inactive)
GI50 (HCC 2998): > 100 µM (inactive)
GI50 (SN12C): > 100 µM (inactive)
GI50 (OVCAR-8): > 100 µM (inactive)
GI50 (IGROV-1): > 100 µM (inactive)
GI50 (NCI-H23): > 100 µM (inactive)
GI50 (SF-539): > 100 µM (inactive)
GI50 (RPMI-8226): > 100 µM (inactive)
GI50 (SNB-19): > 100 µM (inactive)
GI50 (A549): > 100 µM (inactive)
GI50 (LXFL 529): > 100 µM (inactive)
GI50 (HCT-15): > 100 µM
GI50 (KM12): > 100 µM (inactive)
GI50 (HT-29): > 100 µM (inactive)
GI50 (SK-MEL-28): > 100 µM (inactive)
GI50 (UO-31): > 100 µM (inactive)
GI50 (CAKI-1): > 100 µM (inactive)
GI50 (DLD-1): > 100 µM (inactive)
GI50 (KM-20L2): > 100 µM (inactive)
GI50 (ACHN): > 100 µM (inactive)
GI50 (COLO 205): > 100 µM (inactive)
GI50 (DMS-114): > 100 µM (inactive)
GI50 (SW-620): > 100 µM (inactive)
GI50 (SK-MEL-5): > 100 µM (inactive)
GI50 (NCI-H460): > 100 µM (inactive)
GI50 (786-0): > 100 µM (inactive)
GI50 (U-251): > 100 µM (inactive)
GI50 (HOP-18): > 100 µM (inactive)
GI50 (MOLT-4): > 100 µM (inactive)
GI50 (HCT-116): > 100 µM (inactive)
GI50 (SK-MEL-2): > 100 µM (inactive)
GI50 (OVCAR-5): > 100 µM (inactive)
GI50 (OVCAR-4): > 100 µM (inactive)
GI50 (NCI-H522): > 100 µM (inactive)
GI50 (SF-268): > 100 µM (inactive)
GI50 (HL-60): > 100 µM (inactive)
GI50 (UACC-62): > 100 µM (inactive)
GI50 (SF-295): > 100 µM (inactive)
GI50 (HOP-92): > 100 µM (inactive)
GI50 (M19-MEL): > 100 µM (inactive)
GI50 (HOP-62): > 100 µM (inactive)
GI50 (SK-OV-3): > 100 µM (inactive)
GI50 (LOX IMVI): > 100 µM (inactive)
GI50 (SR): > 100 µM (inactive)
GI50 (SNB-75): > 100 µM (inactive)
GI50 (TK-10): > 100 µM (inactive)
GI50 (M14): > 100 µM (inactive)
GI50 (Malme-3M): > 100 µM (inactive)

N/N=C1\C(=O)N(Cc2ccccc2)C(=O)C1C(=O)NCc1ccccc1 (stereo not given)
GI50 (CCRF-CEM): > 100 µM (inactive)
GI50 (OVCAR-3): > 100 µM (inactive)
GI50 (A498): > 100 µM (inactive)
GI50 (K562): > 100 µM (inactive)
GI50 (RXF 393): > 100 µM (inactive)
GI50 (HCC 2998): > 100 µM (inactive)
GI50 (SN12C): > 100 µM (inactive)
GI50 (OVCAR-8): > 100 µM (inactive)
GI50 (IGROV-1): > 100 µM (inactive)
GI50 (NCI-H23): > 100 µM (inactive)
GI50 (SF-539): > 100 µM (inactive)
GI50 (RPMI-8226): > 100 µM (inactive)
GI50 (SNB-19): > 100 µM (inactive)
GI50 (A549): > 100 µM (inactive)
GI50 (LXFL 529): > 100 µM (inactive)
GI50 (HCT-15): > 100 µM
GI50 (KM12): > 100 µM (inactive)
GI50 (UACC-257): > 100 µM (inactive)
GI50 (HT-29): > 100 µM (inactive)
GI50 (SK-MEL-28): > 100 µM (inactive)
GI50 (UO-31): > 100 µM (inactive)
GI50 (DLD-1): > 100 µM (inactive)
GI50 (KM-20L2): > 100 µM (inactive)
GI50 (ACHN): > 100 µM (inactive)
GI50 (COLO 205): > 100 µM (inactive)
GI50 (DMS-114): > 100 µM (inactive)
GI50 (SW-620): > 100 µM (inactive)
GI50 (SK-MEL-5): > 100 µM (inactive)
GI50 (NCI-H460): > 100 µM (inactive)
GI50 (786-0): > 100 µM (inactive)
GI50 (U-251): > 100 µM (inactive)
GI50 (HOP-18): > 100 µM (inactive)
GI50 (MOLT-4): > 100 µM (inactive)
GI50 (HCT-116): > 100 µM (inactive)
GI50 (SK-MEL-2): > 100 µM (inactive)
GI50 (OVCAR-5): > 100 µM (inactive)
GI50 (OVCAR-4): > 100 µM (inactive)
GI50 (NCI-H522): > 100 µM (inactive)
GI50 (SF-268): > 100 µM (inactive)
GI50 (HL-60): > 100 µM (inactive)
GI50 (UACC-62): > 100 µM (inactive)
GI50 (SNB-78): > 100 µM (inactive)
GI50 (SF-295): > 100 µM (inactive)
GI50 (HOP-92): > 100 µM (inactive)
GI50 (M19-MEL): > 100 µM (inactive)
GI50 (HOP-62): > 100 µM (inactive)
GI50 (SR): > 100 µM (inactive)
GI50 (TK-10): > 100 µM (inactive)
GI50 (EKVX): > 100 µM (inactive)
GI50 (M14): > 100 µM (inactive)
GI50 (Malme-3M): > 100 µM (inactive)
